Reference: ChEMBL document CHEMBL1201862, “PubChem BioAssay data set” (2004)
Values belong to the compound of their own block, whether it stands above or below them. The source made the active and inactive calls.

Tests used:
Ephrin type-A receptor 2 = Ephrin type-A receptor 2 (Homo sapiens, UniProt P29317); assay type: functional;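 further: EPHA2 tested as one member of a kinome-wide kinase panel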
[1] = target: MAP/microtubule affinity-regulating kinase 3 (Homo sapiens, UniProt P27448); assay type: functional;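 further: MARK3 affinity measured as one member of a kinome panel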
Chain of MAP/microtubule affinity-regulating kinase 3 (P27448 whole entry): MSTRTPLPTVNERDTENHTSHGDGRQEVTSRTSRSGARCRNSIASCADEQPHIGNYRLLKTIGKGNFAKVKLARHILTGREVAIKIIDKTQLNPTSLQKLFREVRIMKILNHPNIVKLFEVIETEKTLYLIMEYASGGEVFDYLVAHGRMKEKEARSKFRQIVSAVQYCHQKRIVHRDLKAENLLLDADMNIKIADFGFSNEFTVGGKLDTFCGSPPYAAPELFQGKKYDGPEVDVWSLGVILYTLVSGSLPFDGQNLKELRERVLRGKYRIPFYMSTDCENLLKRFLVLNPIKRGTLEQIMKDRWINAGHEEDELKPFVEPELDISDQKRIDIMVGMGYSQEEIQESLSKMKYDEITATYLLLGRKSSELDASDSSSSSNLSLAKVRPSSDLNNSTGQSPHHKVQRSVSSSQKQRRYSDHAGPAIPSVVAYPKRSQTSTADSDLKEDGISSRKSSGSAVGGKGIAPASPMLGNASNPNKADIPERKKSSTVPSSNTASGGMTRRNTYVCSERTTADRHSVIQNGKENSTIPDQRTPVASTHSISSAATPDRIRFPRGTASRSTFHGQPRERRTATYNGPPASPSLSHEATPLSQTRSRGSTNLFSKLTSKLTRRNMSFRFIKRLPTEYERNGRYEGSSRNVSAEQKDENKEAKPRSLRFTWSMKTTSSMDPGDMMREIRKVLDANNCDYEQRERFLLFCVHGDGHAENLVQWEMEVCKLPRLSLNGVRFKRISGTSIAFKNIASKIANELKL

Aurora kinase B = Aurora kinase B (Homo sapiens, UniProt Q96GD4); assay type: functional
Chain of Aurora kinase B (Q96GD4 whole entry): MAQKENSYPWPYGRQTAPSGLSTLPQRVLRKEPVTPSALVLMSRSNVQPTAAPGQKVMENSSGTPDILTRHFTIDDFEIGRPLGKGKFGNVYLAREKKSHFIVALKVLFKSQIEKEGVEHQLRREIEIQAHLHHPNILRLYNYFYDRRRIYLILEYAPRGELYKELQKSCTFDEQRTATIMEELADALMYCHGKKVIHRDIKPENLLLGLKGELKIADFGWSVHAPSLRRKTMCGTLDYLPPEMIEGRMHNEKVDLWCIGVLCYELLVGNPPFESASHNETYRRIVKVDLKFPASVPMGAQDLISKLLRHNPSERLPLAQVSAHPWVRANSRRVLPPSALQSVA

[2] = target: MAP kinase-activated protein kinase 3 (Homo sapiens, UniProt Q16644); assay type: functional;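 further: value comes from a kinome-wide profiling panel in which MAPKAPK3 is one of the panel members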
Chain of MAP kinase-activated protein kinase 3 (Q16644 whole entry): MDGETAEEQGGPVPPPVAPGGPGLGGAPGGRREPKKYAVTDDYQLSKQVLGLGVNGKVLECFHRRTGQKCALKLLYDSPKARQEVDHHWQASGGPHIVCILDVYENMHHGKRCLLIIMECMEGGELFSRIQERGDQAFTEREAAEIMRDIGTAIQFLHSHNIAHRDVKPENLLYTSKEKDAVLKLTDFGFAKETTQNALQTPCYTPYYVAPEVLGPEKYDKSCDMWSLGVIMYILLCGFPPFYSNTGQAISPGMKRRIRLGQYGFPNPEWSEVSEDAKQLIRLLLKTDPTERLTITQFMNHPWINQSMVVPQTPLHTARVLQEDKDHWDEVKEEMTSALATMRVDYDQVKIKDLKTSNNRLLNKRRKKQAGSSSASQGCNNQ

[3] = target: Dual specificity tyrosine-phosphorylation-regulated kinase 1A (Homo sapiens, UniProt Q13627); assay type: functional;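 further: measured against DYRK1A as one member of a broad kinome profiling panel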
[4] = target: T1, Sentrin-specific protease 6 (Homo sapiens, UniProt Q9GZR1); assay type: functional;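 further: Luminescence-based dose-response confirmatory assay of SENP6 inhibition, following up an ultra-high-throughput screen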
T1 sequence (Q9GZR1 whole entry): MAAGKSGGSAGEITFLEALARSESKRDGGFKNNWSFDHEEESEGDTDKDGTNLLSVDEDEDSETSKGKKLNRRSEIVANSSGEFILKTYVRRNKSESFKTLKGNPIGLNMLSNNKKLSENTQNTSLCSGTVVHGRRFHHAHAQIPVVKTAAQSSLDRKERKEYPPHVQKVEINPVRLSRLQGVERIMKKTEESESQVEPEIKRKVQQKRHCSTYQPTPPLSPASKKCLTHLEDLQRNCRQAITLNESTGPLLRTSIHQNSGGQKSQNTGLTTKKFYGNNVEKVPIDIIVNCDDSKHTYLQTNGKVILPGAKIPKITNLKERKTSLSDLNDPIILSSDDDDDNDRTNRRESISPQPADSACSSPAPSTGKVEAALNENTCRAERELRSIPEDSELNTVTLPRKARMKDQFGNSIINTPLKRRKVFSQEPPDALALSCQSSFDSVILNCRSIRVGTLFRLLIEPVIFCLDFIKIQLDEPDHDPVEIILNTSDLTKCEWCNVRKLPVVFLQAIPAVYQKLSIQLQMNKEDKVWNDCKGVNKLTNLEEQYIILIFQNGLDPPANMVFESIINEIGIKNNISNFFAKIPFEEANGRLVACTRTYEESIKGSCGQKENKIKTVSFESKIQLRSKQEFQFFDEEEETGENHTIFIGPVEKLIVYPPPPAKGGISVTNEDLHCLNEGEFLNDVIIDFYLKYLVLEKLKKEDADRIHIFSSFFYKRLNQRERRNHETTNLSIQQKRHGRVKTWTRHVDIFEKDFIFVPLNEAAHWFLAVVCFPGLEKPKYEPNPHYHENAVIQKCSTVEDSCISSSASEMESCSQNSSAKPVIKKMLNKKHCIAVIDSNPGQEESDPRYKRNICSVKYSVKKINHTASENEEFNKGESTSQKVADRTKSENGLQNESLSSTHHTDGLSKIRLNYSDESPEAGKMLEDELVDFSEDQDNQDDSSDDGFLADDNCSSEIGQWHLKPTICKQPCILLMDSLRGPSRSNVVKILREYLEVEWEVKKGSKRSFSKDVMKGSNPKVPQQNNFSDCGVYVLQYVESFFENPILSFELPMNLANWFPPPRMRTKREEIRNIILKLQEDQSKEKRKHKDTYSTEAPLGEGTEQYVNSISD

[5] = target: T2, Sentrin-specific protease 8 (Homo sapiens, UniProt Q96LD8); assay type: functional;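 further: luminescence read-out of SENP8 inhibition, dose-response confirmation following an ultra-high-throughput screen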
T2 sequence (Q96LD8 whole entry): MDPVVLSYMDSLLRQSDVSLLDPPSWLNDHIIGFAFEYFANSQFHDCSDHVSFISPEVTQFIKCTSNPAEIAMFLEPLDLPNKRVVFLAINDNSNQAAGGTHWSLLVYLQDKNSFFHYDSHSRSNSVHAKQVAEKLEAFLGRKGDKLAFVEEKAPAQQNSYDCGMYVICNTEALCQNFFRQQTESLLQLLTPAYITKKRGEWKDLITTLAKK

[6] = target: T3, Sentrin-specific protease 7 (Homo sapiens, UniProt Q9BQF6); assay type: functional;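 further: Luminescence-based dose-response confirmation of ultra-high-throughput screening hits, measuring inhibition of SENP7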
T3 sequence (Q9BQF6 whole entry): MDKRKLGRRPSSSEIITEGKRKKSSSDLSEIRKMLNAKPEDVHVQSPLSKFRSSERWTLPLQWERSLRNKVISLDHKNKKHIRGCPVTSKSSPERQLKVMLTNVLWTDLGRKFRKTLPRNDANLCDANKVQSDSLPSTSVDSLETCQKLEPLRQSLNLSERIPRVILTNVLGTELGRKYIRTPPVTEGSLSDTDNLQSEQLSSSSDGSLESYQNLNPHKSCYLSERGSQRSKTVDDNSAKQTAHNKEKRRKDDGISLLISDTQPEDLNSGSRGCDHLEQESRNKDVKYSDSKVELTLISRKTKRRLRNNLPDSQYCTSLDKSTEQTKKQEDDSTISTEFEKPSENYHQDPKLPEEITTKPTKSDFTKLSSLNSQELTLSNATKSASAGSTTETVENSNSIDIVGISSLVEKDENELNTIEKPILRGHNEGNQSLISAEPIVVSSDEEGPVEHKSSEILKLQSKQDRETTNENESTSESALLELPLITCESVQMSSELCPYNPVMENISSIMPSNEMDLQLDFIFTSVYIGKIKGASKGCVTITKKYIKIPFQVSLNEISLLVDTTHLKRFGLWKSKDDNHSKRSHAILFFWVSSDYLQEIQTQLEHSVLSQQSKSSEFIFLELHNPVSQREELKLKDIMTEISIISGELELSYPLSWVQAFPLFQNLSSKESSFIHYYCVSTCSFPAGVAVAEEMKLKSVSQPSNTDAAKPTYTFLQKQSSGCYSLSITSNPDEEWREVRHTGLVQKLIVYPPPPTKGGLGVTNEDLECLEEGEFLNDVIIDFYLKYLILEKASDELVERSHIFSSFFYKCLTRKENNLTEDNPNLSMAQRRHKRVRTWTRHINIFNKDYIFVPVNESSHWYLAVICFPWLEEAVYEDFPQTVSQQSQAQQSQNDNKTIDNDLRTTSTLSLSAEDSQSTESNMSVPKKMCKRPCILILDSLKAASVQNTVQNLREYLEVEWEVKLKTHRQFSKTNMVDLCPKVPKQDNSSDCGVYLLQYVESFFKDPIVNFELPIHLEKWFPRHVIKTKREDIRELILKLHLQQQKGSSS

[7] = viability of HCT116 lacking mutant beta-catenin – cell-based, human colon tumor, dose response (AID 1045); assay type: functional;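 further: HCT116 colon tumor cells with beta catenin knocked out; cells exposed to compound for 60 hours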
CAAX prenyl protease 2 = target: T4, CAAX prenyl protease 2 (Saccharomyces cerevisiae S288c, UniProt Q03530); assay type: biochemical
T4 sequence (Q03530 whole entry): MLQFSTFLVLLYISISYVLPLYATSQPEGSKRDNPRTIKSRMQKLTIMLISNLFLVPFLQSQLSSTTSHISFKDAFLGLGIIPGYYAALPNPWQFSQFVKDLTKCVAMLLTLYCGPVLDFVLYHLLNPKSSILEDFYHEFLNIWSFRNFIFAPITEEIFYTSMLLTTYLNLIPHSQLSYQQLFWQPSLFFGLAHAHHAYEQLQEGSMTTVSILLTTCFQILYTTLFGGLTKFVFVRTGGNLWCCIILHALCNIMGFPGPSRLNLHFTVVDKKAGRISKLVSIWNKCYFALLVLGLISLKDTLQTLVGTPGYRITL

Chain of Ephrin type-A receptor 2 (P29317 whole entry): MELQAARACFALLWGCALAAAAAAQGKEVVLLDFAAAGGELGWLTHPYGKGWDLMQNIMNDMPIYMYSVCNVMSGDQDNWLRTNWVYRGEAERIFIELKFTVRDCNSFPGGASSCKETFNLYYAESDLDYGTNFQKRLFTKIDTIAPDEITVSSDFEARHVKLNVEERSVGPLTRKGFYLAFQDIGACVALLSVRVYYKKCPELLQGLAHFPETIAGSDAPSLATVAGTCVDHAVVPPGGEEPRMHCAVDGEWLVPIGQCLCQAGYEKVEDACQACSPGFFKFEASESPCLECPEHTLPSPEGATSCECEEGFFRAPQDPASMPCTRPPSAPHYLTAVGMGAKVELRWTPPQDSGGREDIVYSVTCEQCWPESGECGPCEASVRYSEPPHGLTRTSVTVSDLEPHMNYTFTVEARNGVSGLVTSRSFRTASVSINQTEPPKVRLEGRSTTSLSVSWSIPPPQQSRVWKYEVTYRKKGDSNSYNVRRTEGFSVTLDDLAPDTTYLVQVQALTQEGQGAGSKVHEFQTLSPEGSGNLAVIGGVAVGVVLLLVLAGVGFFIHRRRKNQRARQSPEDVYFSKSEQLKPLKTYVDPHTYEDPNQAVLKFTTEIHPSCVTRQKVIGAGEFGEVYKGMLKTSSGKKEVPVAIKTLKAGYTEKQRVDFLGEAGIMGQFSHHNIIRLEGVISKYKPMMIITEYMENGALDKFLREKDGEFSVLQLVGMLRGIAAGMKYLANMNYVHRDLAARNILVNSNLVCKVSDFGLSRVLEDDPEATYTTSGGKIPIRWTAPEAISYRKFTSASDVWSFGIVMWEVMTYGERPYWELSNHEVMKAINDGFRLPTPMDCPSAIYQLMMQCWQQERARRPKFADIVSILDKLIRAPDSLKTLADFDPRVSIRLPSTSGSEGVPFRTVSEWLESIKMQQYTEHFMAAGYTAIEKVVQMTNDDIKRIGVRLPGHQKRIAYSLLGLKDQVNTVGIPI

Ki (Ephrin type-A receptor 2): > 3160 nM (inactive)
Ki [1]: 2000 nM (active)
Ki (Aurora kinase B): 1260 nM (active)
Ki [2]: 631 nM (active)
Ki [3]: > 6310 nM (inactive)
Structure (SMILES): CC(=NNC(=N)N)c1cc(NC(=O)NCCCCCCNC(=O)Nc2cc(C(C)=NNC(=N)N)cc(C(C)=NNC(=N)N)c2)cc(C(C)=NNC(=N)N)c1

Structure (SMILES): CCC(C)NC(=O)c1c(N)n(CCCOC)c2nc3ccccc3nc12 (stereo not given)
IC50 [4]: 802 nM (active)
IC50 [5]: 2060 nM (active)
IC50 [6]: 1360 nM (active)
EC50 [7]: 34100 nM (active)

Structure (SMILES): Cc1cc(N)c2cc(NC(=O)/C=C/c3ccccc3Cl)ccc2n1
AC50 (CAAX prenyl protease 2): 6780 nM (active)
